Data as given in patent publication US20090118220A1, “SUBSTITUTED ADENINES AND THE USES THEREOF” (AstraZeneca AB, priority 2006, published 2009).
Values after ≈ are worked out from the molar mass of the structure shown.

Legend:
DNA ligase = DNA ligase FRET inhibition assay, isozyme not specified; format: biochemical
Experimental: (§1) Compounds were tested for inhibition of DNA ligase using a Fluorescence Resonance Energy Transfer (FRET) detection assay as previously described (Chen et al. 2002. Analytical Biochemistry 309: 232-240; Benson et al. 2004. Analytical Biochemistry 324:298-300). Assays were performed in 384-well polystyrene flat-bottom black plates in 30 μl reactions containing 3 μl compound dissolved in dimethylsulfoxide, 20 μl 1.5× Enzyme Working Solution (25% glycerol, 45 mM potassium chloride, 45 mM ammonium sulfate, 15 mM dithiothreitol, 1.5 mM ethylenediaminetetraacetic acid (EDTA), 0.003% Brij 35, 75 mM MOPS pH 7.5, 150 nM bovine serum albumin, 1.5 μM NAD^+, 60 nM DNA substrate, 0.375 nM enzyme in water) and 7 μl 70 mM magnesium chlorine solution (96 mM magnesium chloride, 20% glycerol in water) to initiate the reaction. […] Plates were read in a Tecan Ultra plate reader at two separate wavelengths—Read 1: excitation 485, emission 535, Read 2: excitation 485, emission 595. […] Compound potency was based on IC50 measurements determined from reactions performed in the presence of ten different compound concentrations.
Solubility is determined under assay conditions using a nephelometer to detect a change in turbidity as the concentration of compound increases. The limit of solubility is defined as the maximum concentration before a detectable increase in turbidity is measured.

S. pneumoniae LigA = S. pneumoniae LigA (Streptococcus pneumoniae serotype 4, UniProt Q97QT2); experiment: DNA ligase FRET inhibition assay; format: biochemical; settings: FRET detection, ten compound concentrations; read-out: IC50 (μM) against S. pneumoniae LigA
Experimental: as §1, with “reaction. The DNA substrate is similar to that described in Benson et al. (2004. Analytical Biochemistry 324:298-300).” for “reaction.”

S. pneumoniae = experiment: Bacterial susceptibility testing, microbroth dilution (NCCLS), MIC; format: cell-based; settings: Streptococcus pneumoniae; lowest concentration able to reduce growth by 80% or more; read-out: MIC (μg/ml) against S. pneumoniae
Experimental: Compounds were tested for antimicrobial activity by susceptibility testing using microbroth dilution methods recommended by NCCLS. Compounds were dissolved in dimethylsulfoxide and tested in 10 doubling dilutions in the susceptibility assays such that the final dimethylsulfoxide concentration in the assay was 2% (v/v). The organisms used in the assay were grown overnight on appropriate agar media and then suspended in the NCCLS-recommended liquid susceptibility-testing media. The turbidity of each suspension was adjusted to be equal to a 0.5 McFarland standard, a further 1-in-10 dilution was made into the same liquid medium to prepare the final organism suspension, and 100 μL of this suspension was added to each well of a microtiter plate containing compound dissolved in 2 μL of dimethylsulfoxide. Plates were incubated under appropriate conditions of atmosphere and temperature and for times according to NCCLS standard methods prior to being read. The Minimum Inhibitory Concentration (MIC) was determined as the lowest drug concentration able to reduce growth by 80% or more.

S. pneumoniae LigA, sequence (Q97QT2 whole entry): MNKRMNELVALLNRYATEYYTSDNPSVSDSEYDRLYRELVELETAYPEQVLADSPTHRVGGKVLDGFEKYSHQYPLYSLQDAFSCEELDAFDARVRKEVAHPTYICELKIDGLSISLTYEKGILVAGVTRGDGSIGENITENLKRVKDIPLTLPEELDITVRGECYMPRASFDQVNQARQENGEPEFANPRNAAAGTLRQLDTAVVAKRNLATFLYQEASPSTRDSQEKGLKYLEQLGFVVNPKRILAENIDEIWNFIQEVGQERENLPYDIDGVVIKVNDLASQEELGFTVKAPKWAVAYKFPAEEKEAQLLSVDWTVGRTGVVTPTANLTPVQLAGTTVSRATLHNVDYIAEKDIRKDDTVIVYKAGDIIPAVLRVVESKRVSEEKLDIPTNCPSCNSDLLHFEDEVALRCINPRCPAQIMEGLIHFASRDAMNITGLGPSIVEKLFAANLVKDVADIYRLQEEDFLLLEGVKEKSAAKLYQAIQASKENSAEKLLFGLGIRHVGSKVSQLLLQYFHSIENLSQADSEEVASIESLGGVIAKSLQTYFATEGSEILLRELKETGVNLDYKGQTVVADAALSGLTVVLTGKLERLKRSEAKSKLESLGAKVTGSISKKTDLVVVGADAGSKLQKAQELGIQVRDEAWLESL

Row | inhibition of the ligation reaction at the limit of solubility in the assay medium (DNA ligase) | IC50 (S. pneumoniae LigA) [µM] | Compound | further results
1 | approximately 12% | – | Nc1nc(OC2CCCC2)nc2c1ncn2C1OCCC1(Cl)Cl (centres unmarked) [2-(cyclopentyloxy)-9-(3,3-dichlorotetrahydrofuran-2-yl)-9H-purin-6-amine] | –
2 | approximately 17% | – | C=C[C@]1(O)[C@H](O)[C@@H](C)O[C@H]1n1cnc2c(N)nc(OC3CCCC3)nc21 [(2R,3S,4R,5R)-2-(6-amino-2-(cyclopentyloxy)-9H-purin-9-yl)-5-methyl-3-vinyltetrahydrofuran-3,4-diol] | –
3 | – | 10 | C[C@H]1O[C@@H](n2c(NCc3ccccc3)nc3c(N)nc(OC4CCCC4)nc32)[C@H](O)[C@@H]1O [Example 2] | –
4 | – | – | Nc1nc(OC2CCCC2)nc2c1ncn2[C@@H]1OC(CO)(CO)[C@@H](O)[C@H]1O [Example 12, (3S,4R,5R)-5-[6-amino-2-(cyclopentyloxy)-9H-purin-9-yl]-2,2-bis(hydroxymethyl)tetrahydrofuran-3,4-diol] | MIC (S. pneumoniae): 16 µg/mL (≈ 42 µM)
5 | – | 1 | Nc1nc(OC2CCCC2)nc2c1ncn2[C@@H]1OC(CF)(CF)[C@@H](O)[C@H]1O [Example 13, (3S,4R,5R)-5-[6-amino-2-(cyclopentyloxy)-9H-purin-9-yl]-2,2-bis(fluoromethyl)tetrahydrofuran-3,4-diol] | –
